Assay results from patent US8063221B2, “Aminoquinolones as GSK-3 inhibitors” (Kyorin Pharmaceutical Co., Ltd., priority 2006, dated 2011).
Values after ≈ are worked out from the molar mass of the structure shown. Read-outs that look alike come from different tables or passages of the source.

Key:
[1] = Animal Study 1 (blood glucose in db/db mice); type: in vivo; details: 100 mg/kg orally, 0-6 hr after administration
Protocol: Animal Study 1 Male obese hyperglycemic mice (db/db) and lean mice (C57BL/6J) were obtained from Charles River Laboratories Japan (Yokohama, Japan). All mice were given a standard diet (Clea Japan, Tokyo, Japan) and tap water ad libitum. All institutional guidelines for animal care and use were applied in this study. Test compounds were suspended in 0.3% carboxymethyl-cellulose sodium salt (CMC-Na; Sigma, St. Louis, Mo.). After fasting for 2 hr, the test compounds (100 mg/kg) were administered orally to 7-week-old db/db mice. Vehicle (0.3% CMC-Na) was administered orally to both 7-week-old db/db mice and lean mice. Blood samples were collected from tail vein using capillary tubes containing EDTA·2K at 0, 0.5, 1, 2, 4, and 6 hr after the administration. The blood samples were centrifuged at 2,500×g for 5 min and separated plasma was kept on ice and analyzed in the same day. Plasma glucose levels were determined using the glucose CII-test (Wako Pure Chemical Industries, Osaka, Japan). CHIR99021 is a selective inhibitor of GSK3 enzyme known in the art (see, Ring D B et al., Selective GSK-3 inhibitors potentiate insulin activation of glucose transport and utilization in vitro and in vivo. Diabetes 2003, 52(3): 588-595).

[2] = Animal Study 2 (oral glucose tolerance test); parameters: species or system Crlj:CD1 (ICR) mice; details: Mus musculus, read-out: In vivo studies 300 mg/kg (oral glucose tolerance test, % decrease)
Source text: The results of in vivo oral glucose tolerance test (Example 39), expressed as % decrease, are presented as follows: […]
Animal Study 2 (Oral Glucose Tolerance Test)
Male Crlj:CD1 (ICR) mice were obtained from Charles River Laboratries Japan (Yokohama, Japan). All mice were given a standard diet (Clea Japan, Tokyo, Japan) and tap water ad libitum. All institutional guidelines for animal care and use were applied in this study. Test compounds were suspended in 0.3% carboxymethyl-cellulose sodium salt (CMC-Na; Sigma, St. Louis, Mo.). After fasting for 15-17 hr, the test compound (300 mg/kg) or vehicle (0.3% CMC-Na) was orally administered to 7-week-old ICR mice. Glucose solution (5 g/kg) was orally administered at 30 min after test compound treatment. Blood samples were collected from tail vein using capillary tubes containing EDTA·2K before test compound treatment, and at 0, 0.5, 1, and 2 hr after glucose load. The blood samples were centrifuged at 2,500×g for 5 min and separated plasma was kept on ice and analyzed in the same day. Plasma glucose levels were determined using the glucose C II-test (Wako Pure Chemical Industries, Osaka, Japan).
The sum of plasma glucose levels at 0.5 and 1 hr after glucose load was compared to that of vehicle treatment, and results were presented as percent decrease.

S. aureus Smith = experiment: Antibacterial activity (MIC), S. aureus; type: cell-based; details: Staphylococcus aureus
Procedure, shortened: (§1)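 MIC, the lowest compound concentration inhibiting bacterial growth in culture medium, determined by dilution method per CLSI M7-A4 guidance; reported in μM.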

[3] = molecular target: T1, recombinant full-length human GSK3β (Homo sapiens, UniProt P49841); experiment: Luciferase-coupled cell-free GSK3β kinase assay; type: biochemical
T1 construct: recombinant full-length human GSK3β (Upstate); purchased Upstate
Procedure, shortened: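 GSK3β, 10-25 ng, was incubated with compound for 1 h at 30° C in MOPS pH 7.0 buffer containing 62.5 μM phospho-glycogen synthase peptide-2 and 5 μM ATP. Remaining ATP was read by KinaseGlo luminescence, and IC50 was fitted from % inhibition relative to maximal inhibition.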

E. coli, ATCC8739 = experiment: Antibacterial activity (MIC), E. coli; type: cell-based; details: Escherichia coli
Procedure, shortened: as §1

[4] = Table 2, 300 mg/kg oral, ICR mice, plasma glucose 0.5 and 1 hr after glucose load vs vehicle
[5] = Table 2, S. aureus Smith, read-out: Antimicrobial MIC [μM] S. aureus
[6] = ATCC8739, Table 2, E. coli ATCC8739, read-out: Antimicrobial MIC [μM] E. Coli
[7] = Table 1, 300 mg/kg oral, ICR mice, plasma glucose 0.5 and 1 hr after glucose load vs vehicle
[8] = Table 1, read-out: Antibacterial MIC (μM) S. aureus Smith
[9] = ATCC8739, Table 1, E. coli ATCC8739, read-out: Antibacterial MIC (μM) E.Coli

T1 sequence (P49841 whole entry): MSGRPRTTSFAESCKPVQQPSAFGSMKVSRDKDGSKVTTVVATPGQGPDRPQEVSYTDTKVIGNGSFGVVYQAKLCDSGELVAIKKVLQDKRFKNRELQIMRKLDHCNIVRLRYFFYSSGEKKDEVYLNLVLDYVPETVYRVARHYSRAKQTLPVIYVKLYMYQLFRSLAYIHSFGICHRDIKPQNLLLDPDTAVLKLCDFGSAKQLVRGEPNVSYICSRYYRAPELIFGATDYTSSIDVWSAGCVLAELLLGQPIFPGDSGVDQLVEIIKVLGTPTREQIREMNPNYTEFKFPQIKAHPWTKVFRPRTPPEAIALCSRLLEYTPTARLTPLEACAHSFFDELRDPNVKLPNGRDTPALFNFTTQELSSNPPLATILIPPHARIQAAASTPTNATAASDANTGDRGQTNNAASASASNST

Row | IC50 ([3]; Table 2) [nM] | MIC (S. aureus Smith; [8]) [µM] | IC50 ([3]; Table 1) [nM] | MIC (E. coli, ATCC8739; [9]) [µM] | SMILES | inhibition in vivo at 300 mg/kg [2, 7] [%] | also measured
1 | – | – | – | – | Cc1c[nH]c(-c2cnc(NCCNc3ccc(C#N)cn3)nc2-c2ccc(Cl)cc2Cl)n1 [CHIR99021] | – | blood glucose levels (FIG. 1) [1]: drop in blood glucose levels
2 | 100 to 500 | – | – | – | CC1(C)COc2c(NCCCn3ccnc3)c(F)c(N)c3c(=O)c(C(=O)O)cn1c23 [compound 33] | – | inhibition in vivo at 300 mg/kg [2, 4]: > 20%; MIC (S. aureus Smith; [5]): > 50 µM; MIC (E. coli, ATCC8739; [6]): > 50 µM
3 | 100 to 500 | – | – | – | CC1(C)Cn2cc(C(=O)O)c(=O)c3c(N)c(F)c(NCCNc4ccccn4)c(c32)O1 [compound 57] | – | inhibition in vivo at 300 mg/kg [2, 4]: > 20%; MIC (S. aureus Smith; [5]): 10 to 50 µM (≈ 4.27 to 21.4 µg/mL); MIC (E. coli, ATCC8739; [6]): 10 to 50 µM (≈ 4.27 to 21.4 µg/mL)
4 | – | > 50 | 100 to 500 | > 50 | Nc1c(F)c(NCCCn2ccnc2)c(F)c2c1c(=O)ccn2CCc1ccccc1 [compound 62] | 5 to 10 | –
5 | – | 0.5 to 10 (≈ 0.238 to 4.77 µg/mL) | < 100 | > 50 | COc1c(NCCNc2cccc3ccccc23)c(F)c(N)c2c(=O)c(C(=O)O)cn(C3CC3)c12 [compound 70] | < 5 | –
6 | – | 0.5 to 10 (≈ 0.214 to 4.27 µg/mL) | 100 to 500 | 0.5 to 10 (≈ 0.214 to 4.27 µg/mL) | COc1c(NCCNc2ccccn2)c(F)c(N)c2c(=O)c(C(=O)O)cn(C3CC3)c12 [compound 71] | 10 to 20 | –

Row | SMILES | IC50 ([3]; Table 2) [nM] | MIC (S. aureus Smith; [8]) [µM] | IC50 ([3]; Table 1) [nM] | MIC (E. coli, ATCC8739; [9]) [µM] | inhibition in vivo at 300 mg/kg [2, 7] [%] | also measured
7 | C[C@@H]1COc2c(NCCNc3ccccn3)c(F)c(N)c3c(=O)c(C(=O)O)cn1c23 [compound 31] | 100 to 500 | – | – | – | – | inhibition in vivo at 300 mg/kg ([2]; po): > 20%; MIC (S. aureus Smith; read-out: Antimicrobial MIC [μM] S. aureus): 10 to 50 µM (≈ 4.13 to 20.7 µg/mL); MIC (E. coli, ATCC8739; ATCC8739, read-out: Antimicrobial MIC [μM] E. Coli): 10 to 50 µM (≈ 4.13 to 20.7 µg/mL)
